Consider seven compounds from ChEMBL document CHEMBL1201862, “PubChem BioAssay data set” (2004).

Some targets named below: Cytochrome P450 3A4 (Homo sapiens, UniProt P08684); Cytochrome P450 2D6 (Homo sapiens, UniProt P10635); Cytochrome P450 2C9 (Homo sapiens, UniProt P11712).
Data set [1] has as its target T1, Microphthalmia-associated transcription factor (Homo sapiens, UniProt O75030).
T1 sequence (O75030 whole entry): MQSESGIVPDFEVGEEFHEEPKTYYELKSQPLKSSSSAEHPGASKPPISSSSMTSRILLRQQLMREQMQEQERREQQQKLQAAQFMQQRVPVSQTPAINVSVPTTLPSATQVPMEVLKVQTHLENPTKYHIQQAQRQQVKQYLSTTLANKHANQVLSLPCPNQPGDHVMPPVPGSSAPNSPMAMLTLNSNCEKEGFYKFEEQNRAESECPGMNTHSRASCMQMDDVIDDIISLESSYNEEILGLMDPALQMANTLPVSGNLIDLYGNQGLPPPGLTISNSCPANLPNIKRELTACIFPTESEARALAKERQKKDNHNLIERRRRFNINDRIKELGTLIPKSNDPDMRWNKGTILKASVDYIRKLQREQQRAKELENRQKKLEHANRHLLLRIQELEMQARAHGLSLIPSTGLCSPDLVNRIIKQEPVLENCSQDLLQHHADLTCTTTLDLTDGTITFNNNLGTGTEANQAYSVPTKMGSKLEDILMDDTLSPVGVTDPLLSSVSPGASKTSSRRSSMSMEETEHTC
Put plainly: reducers of TRPM1 reporter luminescence, concentration series – cell-based, SK-MEL-5, cherry-picked, set 3, MITF inhibitor project, dose response (AID 493073).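 Further: SK-MEL-5 melanoma cells with luciferase driven by the MITF target TRPM1 promoter.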 The data set is classed as functional.

Another data set has as its system A-375. Put plainly: proliferation inhibition in MITF-low A375 cells – cell-based, cherry-pick samples, set 2, counter-screen for MITF modulator project, dose response (AID 540335). Format: functional. The conditions noted are these: Homo sapiens.
A further data set has as its system INS1. Put plainly: INS-1E survival protection against cytokine death – cell-based, luminescence, retest, dose response (AID 449756).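 Further: cell death triggered by IL-1 beta plus TNF-alpha plus IFN-gamma mixture; protective hits raise ATP signal compared with cytokine alone wells.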 Format: functional. The conditions noted are these: Rattus norvegicus.
The nature of data set [2]: Luminescence Cell-Based Dose Retest to Confirm Inhibitors of Cancer Stem Cells. [Related pubchem assays (depositor defined):AID2717, AID2721]. Format: functional. The conditions noted are these: Homo sapiens.
Another data set deals with Cytochrome P450 2C19 (Homo sapiens, UniProt P33261). Put plainly: Cytochrome panel assay with activity outcomes. Panel member name: p450-cyp2c19 Compounds with AC50 equal or less than 10 uM are considered active. Format: functional. The conditions noted are these: read-out: AC50.
Cytochrome P450 2C19, sequence (P33261 whole entry): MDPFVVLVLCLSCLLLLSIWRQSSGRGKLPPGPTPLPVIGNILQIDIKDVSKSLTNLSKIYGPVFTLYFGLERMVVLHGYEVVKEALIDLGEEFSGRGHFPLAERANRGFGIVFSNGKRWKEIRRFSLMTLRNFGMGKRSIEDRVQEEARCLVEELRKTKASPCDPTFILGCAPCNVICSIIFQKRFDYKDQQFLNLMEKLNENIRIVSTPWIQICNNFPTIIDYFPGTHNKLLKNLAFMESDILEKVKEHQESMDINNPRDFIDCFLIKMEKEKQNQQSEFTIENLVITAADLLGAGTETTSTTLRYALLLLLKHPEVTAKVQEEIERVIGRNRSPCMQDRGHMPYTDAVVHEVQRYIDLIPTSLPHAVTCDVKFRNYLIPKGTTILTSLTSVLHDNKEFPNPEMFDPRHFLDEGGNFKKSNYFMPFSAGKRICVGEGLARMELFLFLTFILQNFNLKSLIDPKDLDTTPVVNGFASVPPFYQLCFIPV
Data set [3] can be described thus: luciferase reporter signal suppression in cells – H4 neuroglioma cells, luminescence, dose response (AID 1990). The data set is classed as functional, cell-based.
A short description of data set [4]: Luminescence Cell-Based Dose Response HTS to Identify Inhibitors of 5'UTR Stem-Loop Driven Prion Protein mRNA Translation in H4 Neuroglioblastoma Cells. [Related pubchem assays: 1827 (Project Summary), 1813 (Primary HTS)]. Format: functional.
A short description of data set [5]: alpha-synuclein stem-loop luciferase translation blockers – H4 neuroglioma cells, luminescence, confirmation (AID 1988). Format: functional, cell-based.
Data set [6] in a line: decrease of insulin promoter-GFP reporter – imaging, high-content screening, mouse beta cells (AID 1628). Format: functional. The conditions noted are these: MIN6.
Data set [7] can be described thus: MIN6 cell viability loss – mouse insulinoma, cytotoxicity control, dose response (AID 2122).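 Further: confirmatory high-throughput counterscreen run to flag cytotoxic compounds.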 The data set is classed as functional.

Active and inactive are the calls of the source.

Cytochrome P450 2D6, sequence (P10635 whole entry): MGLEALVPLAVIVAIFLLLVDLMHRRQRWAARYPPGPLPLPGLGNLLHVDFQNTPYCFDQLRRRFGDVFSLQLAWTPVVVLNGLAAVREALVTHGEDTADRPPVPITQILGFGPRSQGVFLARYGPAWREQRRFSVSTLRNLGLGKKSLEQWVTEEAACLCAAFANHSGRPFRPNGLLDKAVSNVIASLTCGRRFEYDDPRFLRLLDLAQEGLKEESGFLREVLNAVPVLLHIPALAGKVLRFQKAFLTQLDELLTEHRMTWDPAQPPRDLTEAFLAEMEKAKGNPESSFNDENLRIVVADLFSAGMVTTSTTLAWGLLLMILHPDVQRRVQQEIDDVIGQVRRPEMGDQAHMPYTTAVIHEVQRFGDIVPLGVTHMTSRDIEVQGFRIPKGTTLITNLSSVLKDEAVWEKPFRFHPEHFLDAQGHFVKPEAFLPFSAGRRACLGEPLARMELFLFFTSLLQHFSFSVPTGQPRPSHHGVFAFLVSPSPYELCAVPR
Cytochrome P450 3A4, sequence (P08684 whole entry): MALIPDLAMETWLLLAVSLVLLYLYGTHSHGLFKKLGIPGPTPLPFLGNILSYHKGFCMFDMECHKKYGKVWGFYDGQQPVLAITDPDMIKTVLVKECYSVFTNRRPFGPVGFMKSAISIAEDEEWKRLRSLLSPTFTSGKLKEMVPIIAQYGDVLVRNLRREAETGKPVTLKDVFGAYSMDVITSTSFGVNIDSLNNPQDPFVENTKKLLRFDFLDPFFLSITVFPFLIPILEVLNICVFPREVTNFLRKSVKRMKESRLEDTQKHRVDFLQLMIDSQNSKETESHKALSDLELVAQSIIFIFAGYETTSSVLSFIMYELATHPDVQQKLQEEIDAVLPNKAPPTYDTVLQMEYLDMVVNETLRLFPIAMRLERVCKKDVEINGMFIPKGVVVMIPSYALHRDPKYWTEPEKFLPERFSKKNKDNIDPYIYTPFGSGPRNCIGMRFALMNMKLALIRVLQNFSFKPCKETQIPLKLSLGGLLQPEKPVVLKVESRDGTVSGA
Cytochrome P450 2C9, sequence (P11712 whole entry): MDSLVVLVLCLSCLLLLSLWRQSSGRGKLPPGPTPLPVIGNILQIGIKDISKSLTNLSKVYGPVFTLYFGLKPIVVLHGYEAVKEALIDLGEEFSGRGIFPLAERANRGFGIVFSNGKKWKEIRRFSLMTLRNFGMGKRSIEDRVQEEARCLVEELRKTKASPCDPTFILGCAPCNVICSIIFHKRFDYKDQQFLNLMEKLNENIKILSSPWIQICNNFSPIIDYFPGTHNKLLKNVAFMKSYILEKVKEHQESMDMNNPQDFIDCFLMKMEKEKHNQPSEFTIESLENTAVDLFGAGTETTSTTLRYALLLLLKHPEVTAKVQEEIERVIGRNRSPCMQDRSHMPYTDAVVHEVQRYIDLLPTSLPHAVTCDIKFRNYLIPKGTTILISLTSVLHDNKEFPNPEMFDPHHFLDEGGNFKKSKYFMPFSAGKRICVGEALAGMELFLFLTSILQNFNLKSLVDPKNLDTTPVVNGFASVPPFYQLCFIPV

For the compound `CC(=O)c1c(C)oc2c1C(=O)c1ccccc1C2=O`, the AC50 in [1] was 6.68 µM (active); in the data set on A-375, 41.3 µM (active); with INS1 it was 4.35 µM (active); in data set [2], 3.93 µM (active).
On to `COC(=O)[C@H]1[C@@H](c2ccccc2)[C@@]2(c3ccccc3)Oc3ccccc3[C@@]1(O)[C@@H]2O`, for which the AC50 is 3.98 µM (inconclusive) on Cytochrome P450 2C19, 3.16 µM (inconclusive) on Cytochrome P450 3A4 and “inconclusive” on Cytochrome P450 2D6.
In the case of `Cc1nnc2nc(SCC(=O)NCCC3=CCCCC3)n(-c3ccc(Br)cc3)c(N)c1-2`, the values for the AC50 (in [1]; in the data set with A-375; in the data set on INS1) were 2.46 µM (active), 26.9 µM (active) and 5.09 µM (active), respectively. For the same compound, the EC50 in data set [3] was 9.9 µM (active); in data set [4] it was 15.4 µM (active); in data set [5], 8.54 µM (active).
Consider `Cc1ccc(N=C(S)N2CCN(C(=O)C3CCCO3)CC2)c(C)c1` (configuration not stated), for which the AC50 entry at Cytochrome P450 2C9 was “inconclusive”; on Cytochrome P450 3A4, 22.4 µM (inconclusive); at Cytochrome P450 2D6, “inconclusive”.
For `CNS(=O)(=O)c1cccc(C(=O)OCC(=O)/C=C2/N(C)c3ccccc3C2(C)C)c1`, the figures for the IC50 in data set [6] and in data set [7] were 2.64 µM (active) and 1.64 µM (active), respectively.
On to `O=C(Nc1ccc(Nc2ccncc2)cc1)c1ccc([N+](=O)[O-])cc1`, for which the AC50 in data set [1] was 7.22 µM (active); in the data set with A-375 it was 33.1 µM (active).
Regarding `C/C(=N\NC(=O)COc1ccc([N+](=O)[O-])cc1)C(C)(C)C`, the values for the concentration at half-maximal activity (AC50) on Cytochrome P450 3A4 and on Cytochrome P450 2D6 were 28.2 µM (inconclusive) and “inconclusive”, respectively.
